From ChEMBL document CHEMBL2321764, “Synthesis and antibacterial activities of new piperidine substituted (5R)-[1,2,3]triazolylmethyl and (5R)-[(4-F-[1,2,3]triazolyl)methyl] oxazolidinones” (Bioorg Med Chem Lett, 2013)
≈ marks a conversion by molar mass, not a printed value.

Columns and labels:
Haemophilus influenzae = assay: Antibacterial activity against betalactamase positive Haemophilus influenzae by agar dilution method; type: functional
Streptococcus pyogenes = assay: Antibacterial activity against Streptococcus pyogenes 308A by agar dilution method; type: functional
Streptococcus agalactiae = assay: Antibacterial activity against Streptococcus agalactiae ATCC 2901 by agar dilution method; type: functional
Streptococcus pneumoniae = assay: Antibacterial activity against penicillin-resistant Streptococcus pneumoniae C402 by agar dilution method; type: functional
Enterococcus faecium = assay: Antibacterial activity against vancomycin-resistant Enterococcus faecium C803 by agar dilution method; type: functional
Enterococcus faecalis = assay: Antibacterial activity against vancomycin-resistant Enterococcus faecalis C474 by agar dilution method; type: functional
Staphylococcus = assay: Antibacterial activity against methicillin-resistant coagulase negative Staphylococcus by agar dilution method; type: functional
Staphylococcus aureus = assay: Antibacterial activity against methicillin-resistant Staphylococcus aureus C463 by agar dilution method; type: functional
MAO-B = target: T1, MAO-B (Homo sapiens, UniProt P27338); assay: Inhibition of human MAO-B assessed as residual activity at 10 uM; settings: read-out: INH
T1 sequence (P27338 whole entry): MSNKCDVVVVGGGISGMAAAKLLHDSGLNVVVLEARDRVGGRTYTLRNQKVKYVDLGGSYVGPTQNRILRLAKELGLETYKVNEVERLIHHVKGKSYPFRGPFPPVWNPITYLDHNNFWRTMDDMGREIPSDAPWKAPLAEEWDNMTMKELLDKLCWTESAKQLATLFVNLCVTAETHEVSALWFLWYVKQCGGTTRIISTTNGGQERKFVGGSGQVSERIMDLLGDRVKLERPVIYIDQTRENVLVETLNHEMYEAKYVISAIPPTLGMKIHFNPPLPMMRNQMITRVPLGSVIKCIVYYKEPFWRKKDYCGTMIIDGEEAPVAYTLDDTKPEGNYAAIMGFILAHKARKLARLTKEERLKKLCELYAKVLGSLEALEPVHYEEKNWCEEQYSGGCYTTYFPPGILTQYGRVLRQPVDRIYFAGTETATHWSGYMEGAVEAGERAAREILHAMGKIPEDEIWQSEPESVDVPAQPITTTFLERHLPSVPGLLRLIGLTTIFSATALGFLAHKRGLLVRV

MAO-A = target: T2, MAO-A (Homo sapiens, UniProt P21397); assay: Inhibition of human MAO-A assessed as residual activity at 10 uM; settings: read-out: INH
T2 sequence (P21397 whole entry): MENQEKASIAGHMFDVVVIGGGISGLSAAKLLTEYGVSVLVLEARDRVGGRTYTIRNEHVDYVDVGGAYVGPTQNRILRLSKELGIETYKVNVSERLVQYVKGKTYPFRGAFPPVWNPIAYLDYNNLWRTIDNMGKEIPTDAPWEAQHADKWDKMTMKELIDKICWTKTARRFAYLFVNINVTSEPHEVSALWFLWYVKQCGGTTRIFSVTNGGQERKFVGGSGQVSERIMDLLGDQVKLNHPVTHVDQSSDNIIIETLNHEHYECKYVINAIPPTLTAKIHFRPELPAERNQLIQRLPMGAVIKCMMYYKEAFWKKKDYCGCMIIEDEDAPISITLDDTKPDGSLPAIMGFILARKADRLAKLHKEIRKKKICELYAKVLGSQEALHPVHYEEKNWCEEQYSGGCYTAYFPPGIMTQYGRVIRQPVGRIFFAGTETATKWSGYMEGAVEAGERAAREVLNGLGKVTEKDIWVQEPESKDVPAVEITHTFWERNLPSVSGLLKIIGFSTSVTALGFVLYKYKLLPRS

CYP3A4 = CYP3A4 (Homo sapiens, UniProt P08684); assay: Inhibition of CYP3A4 (unknown origin) assessed as residual activity at 10 uM; type: ADME; settings: read-out: INH
CYP2C9 = CYP2C9 (Homo sapiens, UniProt P11712); assay: Inhibition of CYP2C9 (unknown origin) assessed as residual activity at 10 uM; type: ADME; settings: read-out: INH
CYP2D6 = CYP2D6 (Homo sapiens, UniProt P10635); assay: Inhibition of CYP2D6 (unknown origin) assessed as residual activity at 10 uM; type: ADME; settings: read-out: INH
CYP1A2 = target: T3, CYP1A2 (Homo sapiens, UniProt P05177); assay: Inhibition of CYP1A2 (unknown origin) assessed as residual activity at 10 uM; type: ADME; settings: read-out: INH
T3 sequence (P05177 whole entry): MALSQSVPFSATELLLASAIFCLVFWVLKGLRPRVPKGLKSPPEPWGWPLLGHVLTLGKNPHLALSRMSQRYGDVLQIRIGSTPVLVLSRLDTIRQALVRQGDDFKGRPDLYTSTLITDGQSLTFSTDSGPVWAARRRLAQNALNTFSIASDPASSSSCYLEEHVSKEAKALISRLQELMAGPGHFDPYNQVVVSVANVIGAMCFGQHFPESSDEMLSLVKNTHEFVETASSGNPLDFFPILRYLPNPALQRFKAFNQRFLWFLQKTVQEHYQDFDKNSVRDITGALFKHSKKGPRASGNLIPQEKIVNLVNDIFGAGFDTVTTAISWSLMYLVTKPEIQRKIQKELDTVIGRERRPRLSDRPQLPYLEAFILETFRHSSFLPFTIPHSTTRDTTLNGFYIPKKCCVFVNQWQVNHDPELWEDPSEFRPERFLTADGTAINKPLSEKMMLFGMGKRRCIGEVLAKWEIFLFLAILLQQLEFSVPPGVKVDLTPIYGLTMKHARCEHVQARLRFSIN

[1] = target: Voltage-gated inwardly rectifying potassium channel KCNH2 (Homo sapiens, UniProt Q12809); assay: Inhibition of human hERG by automated patch clamp assay
Sequence of Voltage-gated inwardly rectifying potassium channel KCNH2 (Q12809 whole entry): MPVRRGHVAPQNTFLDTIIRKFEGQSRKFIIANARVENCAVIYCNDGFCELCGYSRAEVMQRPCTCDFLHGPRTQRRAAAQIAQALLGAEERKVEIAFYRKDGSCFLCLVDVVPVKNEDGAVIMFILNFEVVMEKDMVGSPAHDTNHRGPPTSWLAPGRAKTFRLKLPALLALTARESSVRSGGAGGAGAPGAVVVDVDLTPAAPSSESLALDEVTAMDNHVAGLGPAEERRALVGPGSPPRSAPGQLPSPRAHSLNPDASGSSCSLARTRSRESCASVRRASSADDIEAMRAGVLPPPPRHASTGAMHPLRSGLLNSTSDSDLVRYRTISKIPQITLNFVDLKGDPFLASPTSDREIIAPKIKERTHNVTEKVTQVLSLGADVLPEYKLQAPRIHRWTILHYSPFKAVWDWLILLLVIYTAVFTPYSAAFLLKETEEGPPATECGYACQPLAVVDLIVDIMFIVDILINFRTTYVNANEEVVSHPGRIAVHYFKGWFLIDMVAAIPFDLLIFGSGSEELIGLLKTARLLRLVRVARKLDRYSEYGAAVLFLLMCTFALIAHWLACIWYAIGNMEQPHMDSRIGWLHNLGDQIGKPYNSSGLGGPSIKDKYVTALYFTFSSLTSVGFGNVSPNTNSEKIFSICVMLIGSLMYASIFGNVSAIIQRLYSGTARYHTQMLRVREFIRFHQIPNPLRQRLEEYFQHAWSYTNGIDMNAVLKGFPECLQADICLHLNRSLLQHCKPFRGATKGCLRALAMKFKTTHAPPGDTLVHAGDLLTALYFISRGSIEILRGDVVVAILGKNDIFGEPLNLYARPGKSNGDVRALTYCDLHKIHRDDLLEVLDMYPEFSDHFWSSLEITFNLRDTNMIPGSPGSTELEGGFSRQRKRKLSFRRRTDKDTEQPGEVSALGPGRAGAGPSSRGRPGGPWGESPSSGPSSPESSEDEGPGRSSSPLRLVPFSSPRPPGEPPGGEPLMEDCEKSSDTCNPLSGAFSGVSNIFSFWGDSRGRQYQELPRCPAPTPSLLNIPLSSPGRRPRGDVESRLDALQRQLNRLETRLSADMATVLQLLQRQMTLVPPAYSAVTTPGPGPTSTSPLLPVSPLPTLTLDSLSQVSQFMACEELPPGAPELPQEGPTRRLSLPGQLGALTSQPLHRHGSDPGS

Sequence of CYP2C9 (P11712 whole entry): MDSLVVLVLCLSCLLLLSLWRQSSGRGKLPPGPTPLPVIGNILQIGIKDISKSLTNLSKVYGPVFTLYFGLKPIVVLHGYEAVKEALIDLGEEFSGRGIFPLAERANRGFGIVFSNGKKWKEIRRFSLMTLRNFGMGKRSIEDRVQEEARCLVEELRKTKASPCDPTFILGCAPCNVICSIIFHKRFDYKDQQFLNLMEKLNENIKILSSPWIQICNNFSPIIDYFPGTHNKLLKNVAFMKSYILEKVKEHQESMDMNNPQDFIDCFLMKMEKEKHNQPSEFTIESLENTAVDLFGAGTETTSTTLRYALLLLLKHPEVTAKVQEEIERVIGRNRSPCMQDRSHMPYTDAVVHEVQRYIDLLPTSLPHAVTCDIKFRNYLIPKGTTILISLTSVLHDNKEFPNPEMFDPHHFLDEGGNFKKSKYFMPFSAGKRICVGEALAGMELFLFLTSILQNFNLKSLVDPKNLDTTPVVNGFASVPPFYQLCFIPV
Sequence of CYP2D6 (P10635 whole entry): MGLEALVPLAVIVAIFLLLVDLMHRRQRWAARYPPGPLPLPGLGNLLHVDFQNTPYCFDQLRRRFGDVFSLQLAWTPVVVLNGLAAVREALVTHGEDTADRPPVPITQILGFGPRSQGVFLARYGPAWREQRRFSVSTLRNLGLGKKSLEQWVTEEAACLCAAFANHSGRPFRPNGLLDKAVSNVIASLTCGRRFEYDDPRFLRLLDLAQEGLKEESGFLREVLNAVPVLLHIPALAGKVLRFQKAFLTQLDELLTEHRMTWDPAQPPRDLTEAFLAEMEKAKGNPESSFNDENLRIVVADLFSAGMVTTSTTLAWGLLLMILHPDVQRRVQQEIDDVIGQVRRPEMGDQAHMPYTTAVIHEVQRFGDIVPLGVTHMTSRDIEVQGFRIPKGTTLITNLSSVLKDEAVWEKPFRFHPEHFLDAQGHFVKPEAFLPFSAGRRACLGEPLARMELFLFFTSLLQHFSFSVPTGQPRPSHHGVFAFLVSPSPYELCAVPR
Sequence of CYP3A4 (P08684 whole entry): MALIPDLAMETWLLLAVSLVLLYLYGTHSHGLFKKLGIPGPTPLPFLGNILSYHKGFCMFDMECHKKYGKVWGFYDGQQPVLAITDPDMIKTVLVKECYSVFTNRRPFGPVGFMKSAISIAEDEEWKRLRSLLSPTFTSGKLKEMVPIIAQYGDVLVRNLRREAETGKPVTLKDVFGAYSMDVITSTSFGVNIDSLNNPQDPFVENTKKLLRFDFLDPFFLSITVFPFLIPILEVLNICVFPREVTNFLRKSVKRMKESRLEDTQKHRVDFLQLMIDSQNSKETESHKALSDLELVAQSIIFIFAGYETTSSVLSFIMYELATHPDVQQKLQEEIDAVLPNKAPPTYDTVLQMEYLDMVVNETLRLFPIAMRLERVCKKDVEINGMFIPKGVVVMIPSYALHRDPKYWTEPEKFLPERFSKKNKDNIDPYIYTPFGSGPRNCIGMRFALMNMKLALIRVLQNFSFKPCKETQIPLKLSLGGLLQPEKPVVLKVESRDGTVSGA

Compound | MIC (Haemophilus influenzae) | MIC (Streptococcus pyogenes) | MIC (Streptococcus agalactiae) | MIC (Streptococcus pneumoniae) | MIC (Enterococcus faecium) | MIC (Enterococcus faecalis) | MIC (Staphylococcus) | MIC (Staphylococcus aureus) | activity at 10 µM (MAO-B) | activity at 10 µM (MAO-A) | activity at 10 µM (CYP3A4) | activity at 10 µM (CYP2C9) | activity at 10 µM (CYP2D6) | activity at 10 µM (CYP1A2) | IC50 [1]
N#CC1(O)CCN(c2ccc(N3C[C@H](Cn4cc(F)nn4)OC3=O)cc2F)CC1 | 6.25 mg/L (≈ 15.5 µM) | 6.25 mg/L (≈ 15.5 µM) | 12.5 mg/L (≈ 30.9 µM) | 6.25 mg/L (≈ 15.5 µM) | 100 mg/L (≈ 247 µM) | 100 mg/L (≈ 247 µM) | 100 mg/L (≈ 247 µM) | 100 mg/L (≈ 247 µM) | – | – | – | – | – | – | –
N#CC1=CCN(c2ccc(N3C[C@H](Cn4cc(F)nn4)OC3=O)cc2F)CC1 | 6.26 mg/L (≈ 16.2 µM) | 50 mg/L (≈ 129 µM) | 100 mg/L (≈ 259 µM) | 6.25 mg/L (≈ 16.2 µM) | 50 mg/L (≈ 129 µM) | 50 mg/L (≈ 129 µM) | 100 mg/L (≈ 259 µM) | 100 mg/L (≈ 259 µM) | – | – | – | – | – | – | –
N#CC=C1CCN(c2ccc(N3C[C@H](Cn4ccnn4)OC3=O)cc2F)CC1 | 0.78 mg/L (≈ 2.04 µM) | 0.39 mg/L (≈ 1.02 µM) | 0.78 mg/L (≈ 2.04 µM) | 0.39 mg/L (≈ 1.02 µM) | 1.56 mg/L (≈ 4.08 µM) | 3.12 mg/L (≈ 8.16 µM) | 3.12 mg/L (≈ 8.16 µM) | 3.12 mg/L (≈ 8.16 µM) | 111% | 3.54% | 32% | 88% | 80.9% | 55.2% | 49.5 µM
CC(C#N)=C1CCN(c2ccc(N3C[C@H](Cn4ccnn4)OC3=O)cc2F)CC1 | 0.39 mg/L (≈ 0.984 µM) | 0.39 mg/L (≈ 0.984 µM) | 0.19 mg/L (≈ 0.479 µM) | 0.19 mg/L (≈ 0.479 µM) | 1.56 mg/L (≈ 3.94 µM) | 1.56 mg/L (≈ 3.94 µM) | 1.56 mg/L (≈ 3.94 µM) | 1.56 mg/L (≈ 3.94 µM) | 74.8% | 34.8% | 7.45% | 61.5% | 65.1% | 45.7% | 213 µM
CCOC(=O)C=C1CCN(c2ccc(N3C[C@H](Cn4cc(F)nn4)OC3=O)cc2F)CC1 | 6.25 mg/L (≈ 14 µM) | 50 mg/L (≈ 112 µM) | 100 mg/L (≈ 223 µM) | 6.25 mg/L (≈ 14 µM) | 100 mg/L (≈ 223 µM) | 100 mg/L (≈ 223 µM) | 100 mg/L (≈ 223 µM) | 100 mg/L (≈ 223 µM) | – | – | – | – | – | – | –
CCOC(=O)C(C)=C1CCN(c2ccc(N3C[C@H](Cn4ccnn4)OC3=O)cc2F)CC1 | 1.56 mg/L (≈ 3.52 µM) | 0.78 mg/L (≈ 1.76 µM) | 1.56 mg/L (≈ 3.52 µM) | 0.78 mg/L (≈ 1.76 µM) | 6.25 mg/L (≈ 14.1 µM) | 6.25 mg/L (≈ 14.1 µM) | 12.5 mg/L (≈ 28.2 µM) | 12.5 mg/L (≈ 28.2 µM) | – | – | – | – | – | – | –
CCOC(=O)C(Cl)=C1CCN(c2ccc(N3C[C@H](Cn4cc(F)nn4)OC3=O)cc2F)CC1 | 50 mg/L (≈ 104 µM) | 50 mg/L (≈ 104 µM) | 25 mg/L (≈ 51.9 µM) | 100 mg/L (≈ 208 µM) | 100 mg/L (≈ 208 µM) | 100 mg/L (≈ 208 µM) | 100 mg/L (≈ 208 µM) | 100 mg/L (≈ 208 µM) | – | – | – | – | – | – | –
COC(=O)C=C1CCN(c2ccc(N3C[C@H](Cn4ccnn4)OC3=O)cc2F)CC1 | 1.56 mg/L (≈ 3.76 µM) | 0.78 mg/L (≈ 1.88 µM) | 1.56 mg/L (≈ 3.76 µM) | 0.78 mg/L (≈ 1.88 µM) | 6.25 mg/L (≈ 15 µM) | 3.12 mg/L (≈ 7.51 µM) | 3.12 mg/L (≈ 7.51 µM) | 3.12 mg/L (≈ 7.51 µM) | – | – | – | – | – | – | –
N#CC1=CCN(c2ccc(N3C[C@H](Cn4ccnn4)OC3=O)cc2F)CC1 | 1.56 mg/L (≈ 4.23 µM) | 1.56 mg/L (≈ 4.23 µM) | 1.56 mg/L (≈ 4.23 µM) | 1.56 mg/L (≈ 4.23 µM) | 3.12 mg/L (≈ 8.47 µM) | 3.12 mg/L (≈ 8.47 µM) | 3.12 mg/L (≈ 8.47 µM) | 3.12 mg/L (≈ 8.47 µM) | – | – | – | – | – | – | –
CCOC(=O)CC1=CCN(c2ccc(N3C[C@H](Cn4ccnn4)OC3=O)cc2F)CC1 | 3.12 mg/L (≈ 7.27 µM) | 1.56 mg/L (≈ 3.63 µM) | 1.56 mg/L (≈ 3.63 µM) | 1.56 mg/L (≈ 3.63 µM) | 6.25 mg/L (≈ 14.6 µM) | 6.25 mg/L (≈ 14.6 µM) | 6.25 mg/L (≈ 14.6 µM) | 6.25 mg/L (≈ 14.6 µM) | – | – | – | – | – | – | –
